pIC50: −log10 of the molar value.
How the values were obtained:
Human topoisomerase IIα [1] = target: T1, Human topoisomerase IIα (Homo sapiens, UniProt P11388); assay: Human topoisomerase IIα-mediated decatenation assay; assay type: biochemical; parameters: purchased TopoGEN Inc
Procedure: (§1) Human Topoisomerase IIα-mediated relaxation assays and decatenation assays were performed as per the manufacturer's instructions in a total of 20 μL. Relaxation assays contained Topoisomerase IIα (4.3 nM), 50 mM Tris.HCl pH 8,120 mM KCl, 10 mM MgCl2, 0.5 mM DTT, 0.5 mM ATP, 4.6 nM of supercoiled pBR322 DNA, and inhibitor where appropriate. Decatenation assays substituted the supercoiled DNA with 200 ng catenated kinetoplast DNA.
(§2) All in vitro reactions were incubated at 37° C. for 30 minutes. The DMSO concentration in each reaction was kept constant at 3.33%. Reactions were quenched with the addition of an equal volume of phenol/chloroform/isoamyl alcohol (25:24:1) and one tenth volume of loading buffer containing 40% sucrose, 100 mM Tris.HCl pH 7.5, 100 mM EDTA, 2 mg/mL bromophenol blue. The proteins were precipitated by vortexing, followed by centrifugation for 5 minutes at 16 000 g. The aqueous phase was loaded onto 1% agarose gels in Tris-acetate and were electrophoresed at 60 V for three hours in Tris-acetate buffer. The gels were stained in 1 μg/mL ethidium bromide. The gels were visualised using UV light and were documented and analysed using Syngene software.

Human topoisomerase IIα [2] = target: T1, Human topoisomerase IIα; assay: Human Topoisomerase IIα decatenation assay; assay type: biochemical; parameters: purchased TopoGEN Inc. (Port Orange, Fla., USA); conditions: read-out: Topo IIα Human, D (decatenation reaction) IC50
Procedure: as §1, §2

Human topoisomerase I = target: T2, Human topoisomerase I (Homo sapiens, UniProt P11387); assay: Human topoisomerase I-mediated relaxation assay; assay type: biochemical; conditions: read-out: Topo I Human IC50
T2 construct: purchased TopoGEN Inc. (Port Orange, Fla., USA)
T2 sequence (P11387 1-765): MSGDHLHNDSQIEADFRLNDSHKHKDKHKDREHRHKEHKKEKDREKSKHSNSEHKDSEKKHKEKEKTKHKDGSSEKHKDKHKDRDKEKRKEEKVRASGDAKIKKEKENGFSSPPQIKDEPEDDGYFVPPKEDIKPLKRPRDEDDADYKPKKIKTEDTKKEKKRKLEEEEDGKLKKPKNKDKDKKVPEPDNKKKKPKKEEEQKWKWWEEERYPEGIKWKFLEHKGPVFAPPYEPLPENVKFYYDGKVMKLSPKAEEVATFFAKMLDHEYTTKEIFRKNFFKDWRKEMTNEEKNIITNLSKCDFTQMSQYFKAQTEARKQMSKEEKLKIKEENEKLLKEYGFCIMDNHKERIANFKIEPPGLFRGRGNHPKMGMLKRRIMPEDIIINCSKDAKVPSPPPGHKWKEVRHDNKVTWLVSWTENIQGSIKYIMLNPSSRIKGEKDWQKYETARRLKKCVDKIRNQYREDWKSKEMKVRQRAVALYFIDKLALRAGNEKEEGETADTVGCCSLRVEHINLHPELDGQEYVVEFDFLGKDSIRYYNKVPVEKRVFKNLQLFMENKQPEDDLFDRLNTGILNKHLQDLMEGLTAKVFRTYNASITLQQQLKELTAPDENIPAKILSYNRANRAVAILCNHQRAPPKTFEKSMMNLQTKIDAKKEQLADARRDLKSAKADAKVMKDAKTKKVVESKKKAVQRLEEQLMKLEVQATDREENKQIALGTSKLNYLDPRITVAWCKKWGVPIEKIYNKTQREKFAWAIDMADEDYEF
Procedure: Human topoisomerase I-mediated relaxation assays were performed as per the manufacturer's instructions. Topoisomerase I (2 nM) was added to reactions containing 10 mM of Tris.HCl, pH 7.9, 150 mM NaCl, 100 μM spermidine.HCl, 5% glycerol, 0.1% BSA, 4.6 nM of […] pBR322 DNA, and inhibitor where appropriate.
as §2

HeLa cells = assay: MTT cell viability assay, HeLa; assay type: cell-based, human; conditions: cell reads on: Active
Procedure: (§3) Human cell cultures were initiated from frozen cell stocks (the gift of Dr J. Gavrilovic, UEA). […] Both human cell lines form adherent cultures and were maintained at 37° C. in T25 culture vessels as 10 mL cultures in CO2 Independent Media containing 10% foetal bovine serum (EU approved), 4 mM L-glutamine, penicillin/streptomycin (Invitrogen). […] Media was renewed every three days.
(§4) After incubation with MTT and solubilization, the resulting coloured solution is quantified using a scanning spectrophotometer. […] Cell viability was then determined by addition of MTT reagent (20 μL) in each well, as per manufacturer's instructions and incubated for a further 4 hours. Solubilization solution (100 μL) was added per well and the plates incubated overnight at 37° C. The plates were read in a spectrophotometer (scanning from 500-650 nm, signal peak at 570 nm).

E. coli Topoisomerase IV [3] = target: T3, E. coli Topoisomerase IV (Escherichia coli, UniProt P0AFI2+P20083); assay: Topoisomerase IV-mediated decatenation assay; assay type: biochemical; parameters: purchased John Innes Enterprises
T3 sequence (P20083 whole entry): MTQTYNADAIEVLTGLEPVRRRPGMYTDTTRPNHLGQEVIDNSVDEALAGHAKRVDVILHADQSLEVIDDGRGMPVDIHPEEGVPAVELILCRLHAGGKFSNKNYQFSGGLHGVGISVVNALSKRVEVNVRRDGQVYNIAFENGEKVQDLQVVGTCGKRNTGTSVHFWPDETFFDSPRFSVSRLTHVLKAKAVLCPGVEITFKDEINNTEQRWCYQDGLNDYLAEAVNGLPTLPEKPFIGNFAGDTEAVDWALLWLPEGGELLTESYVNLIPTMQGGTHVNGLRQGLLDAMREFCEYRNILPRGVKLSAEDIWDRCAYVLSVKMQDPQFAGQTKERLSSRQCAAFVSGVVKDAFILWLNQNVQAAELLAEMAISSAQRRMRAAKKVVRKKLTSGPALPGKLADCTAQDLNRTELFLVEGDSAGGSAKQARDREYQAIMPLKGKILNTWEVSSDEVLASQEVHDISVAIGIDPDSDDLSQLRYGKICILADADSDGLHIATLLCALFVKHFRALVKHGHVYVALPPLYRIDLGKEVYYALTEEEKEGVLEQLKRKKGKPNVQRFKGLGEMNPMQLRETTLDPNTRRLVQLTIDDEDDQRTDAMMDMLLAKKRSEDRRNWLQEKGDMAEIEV
T3 sequence (P0AFI2 whole entry): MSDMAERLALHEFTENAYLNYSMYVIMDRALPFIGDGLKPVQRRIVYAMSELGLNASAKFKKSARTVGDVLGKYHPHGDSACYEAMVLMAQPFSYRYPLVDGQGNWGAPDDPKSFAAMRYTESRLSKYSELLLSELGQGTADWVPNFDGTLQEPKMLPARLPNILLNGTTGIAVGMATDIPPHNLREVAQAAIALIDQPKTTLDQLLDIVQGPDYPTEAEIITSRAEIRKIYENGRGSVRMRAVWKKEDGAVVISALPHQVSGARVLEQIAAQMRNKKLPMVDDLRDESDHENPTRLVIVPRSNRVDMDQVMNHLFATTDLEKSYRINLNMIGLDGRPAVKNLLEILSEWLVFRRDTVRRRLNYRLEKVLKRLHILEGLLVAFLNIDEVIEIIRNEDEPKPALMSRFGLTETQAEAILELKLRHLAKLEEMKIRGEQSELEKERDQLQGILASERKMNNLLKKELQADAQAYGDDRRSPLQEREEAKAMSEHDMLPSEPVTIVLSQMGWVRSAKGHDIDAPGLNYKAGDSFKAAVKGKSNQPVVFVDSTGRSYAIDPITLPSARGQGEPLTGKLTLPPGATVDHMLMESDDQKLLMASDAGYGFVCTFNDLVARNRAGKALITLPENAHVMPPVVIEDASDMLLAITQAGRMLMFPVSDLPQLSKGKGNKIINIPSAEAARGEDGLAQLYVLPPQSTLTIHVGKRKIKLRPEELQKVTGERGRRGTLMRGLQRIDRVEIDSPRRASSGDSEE
Procedure: Topoisomerase IV-mediated relaxation assays and decatenation assays were performed as previously described (see Peng and Marians, 1993). Relaxation assays contained topoisomerase IV (20 nM), 40 mM Tris.HCl pH 7.5 at 30° C., 6 mM MgCl2, 10 mM DTT, 1 mM spermidine.HCl, 20 mM KCl, 1 mM ATP, 0.5 mg/mL BSA, 4.6 nM of supercoiled pBR322 DNA and inhibitor where appropriate. Decatenation assays contained topoisomerase IV (4 nM), 40 mM Tris HCl pH 7.5 at 30° C., 6 mM MgCl2, 10 mM DTT, 1 mM spermidine.HCl, 100 mM potassium glutamate, 0.5 mM ATP, 0.5 mg/mL BSA, 200 ng of kinetoplast DNA, and inhibitor where appropriate.
as §2

HT-29 cells = assay: MTT cell viability assay, HT-29; assay type: cell-based, human; conditions: cell reads on: Active
Procedure: as §3, §4

[4] = test system: Arabidopsis thaliana ecotype Columbia plants; assay: Effects on A. thaliana seedlings and plants; assay type: in vivo; conditions: Table 5-C
Procedure: The microcin derivatives were tested for efficacy in planta against Arabidopsis thaliana ecotype Columbia according to known methods (see Wall et al., 2004). Seeds were germinated on sterile media containing the appropriate peptide and the effects were observed over a three week period. […] In […] seeds, such as A. thaliana, during imbibition the quiescent seed rapidly resumes metabolic and respiratory activity. One of the first steps, as part of this process, is the initiation of mitochondrial DNA synthesis which requires DNA gyrase and which may explain the exquisite sensitivity of the germinating seeds to Peptides 1 and 2.
The leaf tissue initially turned yellow, followed by rapid necrosis of the tissue (see FIG. 32). […] The high hydrophility of Peptide 1 may preferentially allow the compound to readily diffuse through the leaf cuticle and epidermis to the mesophyll and phloem below.
The heterocyclic compounds were also spotted onto the leaves of 4 week old, tissue culture grown Arabidopsis thaliana ecotype Columbia plants (see FIG. 34, panels A-1). […] The browning and necrosis diffused through the full thickness of the leaf over the next 60 minutes (see FIG. 34, panel F) and spread towards the meristem (see FIG. 34, panels E, F, H). Complete necrosis of the meristem and newly emerged leaves, where organellar replication takes place, was complete within 24 hours (see FIG. 34, panel F).

E. coli Topoisomerase IV [5] = target: T3, E. coli Topoisomerase IV; assay: biochemical; parameters: purchased John Innes Enterprises (Norwich, UK); conditions: read-out: Topo IV, R (relaxation reaction) IC50
Procedure: Topoisomerase IV-mediated relaxation assays and decatenation assays were performed as previously described (see Peng and Marians, 1993). […] Decatenation assays contained topoisomerase IV (4 nM), 40 mM Tris HCl pH 7.5 at 30° C., 6 mM MgCl2, 10 mM DTT, 1 mM spermidine.HCl, 100 mM potassium glutamate, 0.5 mM ATP, 0.5 mg/mL BSA, 200 ng of kinetoplast DNA, and inhibitor where appropriate.

T1 sequence (P11388 whole entry): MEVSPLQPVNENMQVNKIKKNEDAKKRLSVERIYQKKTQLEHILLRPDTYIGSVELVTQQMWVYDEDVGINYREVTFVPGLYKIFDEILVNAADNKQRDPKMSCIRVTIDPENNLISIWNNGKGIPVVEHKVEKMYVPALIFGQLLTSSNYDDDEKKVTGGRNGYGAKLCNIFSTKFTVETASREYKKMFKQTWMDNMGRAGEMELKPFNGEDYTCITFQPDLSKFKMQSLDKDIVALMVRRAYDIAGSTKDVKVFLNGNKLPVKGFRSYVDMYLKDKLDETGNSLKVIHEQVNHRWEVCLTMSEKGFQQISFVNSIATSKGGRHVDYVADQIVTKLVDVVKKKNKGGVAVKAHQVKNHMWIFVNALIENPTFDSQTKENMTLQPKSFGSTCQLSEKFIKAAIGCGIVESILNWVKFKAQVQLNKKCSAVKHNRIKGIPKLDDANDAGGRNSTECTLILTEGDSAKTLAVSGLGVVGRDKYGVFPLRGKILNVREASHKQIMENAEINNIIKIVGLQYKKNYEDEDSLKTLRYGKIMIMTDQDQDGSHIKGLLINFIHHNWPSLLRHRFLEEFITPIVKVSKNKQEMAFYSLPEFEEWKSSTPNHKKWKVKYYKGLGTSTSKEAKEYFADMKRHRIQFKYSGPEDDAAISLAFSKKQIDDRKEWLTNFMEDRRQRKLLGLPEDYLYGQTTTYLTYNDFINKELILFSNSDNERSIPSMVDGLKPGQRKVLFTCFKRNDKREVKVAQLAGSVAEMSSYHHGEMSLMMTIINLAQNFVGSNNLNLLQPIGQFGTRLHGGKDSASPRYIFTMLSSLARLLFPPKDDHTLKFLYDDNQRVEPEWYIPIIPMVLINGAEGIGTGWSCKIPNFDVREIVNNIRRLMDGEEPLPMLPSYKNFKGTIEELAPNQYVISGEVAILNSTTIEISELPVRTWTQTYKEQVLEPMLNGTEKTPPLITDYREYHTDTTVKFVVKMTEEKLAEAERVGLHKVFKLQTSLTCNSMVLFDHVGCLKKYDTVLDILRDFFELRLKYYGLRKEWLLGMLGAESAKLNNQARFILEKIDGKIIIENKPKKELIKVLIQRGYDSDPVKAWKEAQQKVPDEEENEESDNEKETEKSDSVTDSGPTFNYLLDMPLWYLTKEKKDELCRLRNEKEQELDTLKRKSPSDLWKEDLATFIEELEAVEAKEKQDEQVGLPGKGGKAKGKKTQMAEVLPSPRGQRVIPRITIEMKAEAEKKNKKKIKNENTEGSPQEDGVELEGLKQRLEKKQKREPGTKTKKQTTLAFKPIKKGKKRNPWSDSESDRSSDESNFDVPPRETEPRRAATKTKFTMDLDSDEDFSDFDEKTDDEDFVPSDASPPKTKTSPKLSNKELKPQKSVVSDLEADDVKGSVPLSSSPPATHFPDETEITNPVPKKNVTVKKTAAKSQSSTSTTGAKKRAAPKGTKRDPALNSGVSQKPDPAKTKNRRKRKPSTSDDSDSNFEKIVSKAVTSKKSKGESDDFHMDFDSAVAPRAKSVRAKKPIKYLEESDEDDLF

CC(C)(C)OC(=O)NCc1nc(C(=O)O)co1 [#6]
Decatenation activity of eukaryotic topoisomerase IIα, sensitivity (Human topoisomerase IIα [1]): albeit weakly
pIC50 (Human topoisomerase IIα [2]): < 3.60
pIC50 (Human topoisomerase I): < 3.52
In vivo HeLa Cells activity (HeLa cells): Not
Decatenation activity of topoisomerase IV, sensitivity (E. coli Topoisomerase IV [3]): albeit weakly
In vivo HT29 Cells activity (HT-29 cells): Not
In vivo Plants, P (whole plants, expanded Arabidopsis leaves) [4]: P > 300 μM
pIC50 (E. coli Topoisomerase IV [5]): < 3.52

Reference: patent publication US20080234132A1, “Microcin B17 Analogs And Methods For Their Preparation And Use” (priority 2004, published 2008)
